Where two headings read alike, the source gives them in different places.
Key:
Type in all cases: in vivo
[1] = system: Erysiphe graminis tritici (powdery mildew); test: Test 1 greenhouse foliar spray screen, powdery mildew on wheat; conditions: for pest or weed control at 400 ppm: Blumeria graminis, foliar, Test 1, foliar spray on wheat, disease control rating at 400 ppm / 100 ppm, read-out: POWD MDEW; for POWD MDEW: disease control rating, foliar spray on wheat, 400 ppm (+++ at 100 ppm)
[2] = system: Pyricularia oryzae (rice blast); test: whole plant or invertebrate; conditions: for pest or weed control at 400 ppm: Pyricularia oryzae, foliar, read-out: RICE BLAST, Test 1, foliar spray on rice, disease control rating at 400 ppm / 100 ppm; for RICE BLAST: disease control rating, foliar spray on rice, 400 ppm (+++ at 100 ppm)
[3] = system: Puccinia recondita tritici (leaf rust); test: Test 1 greenhouse foliar spray screen, leaf rust on wheat; conditions: for pest or weed control at 400 ppm: Puccinia recondita, foliar, Test 1, foliar spray on wheat, disease control rating at 400 ppm / 100 ppm; for LEAF RUST: disease control rating, foliar spray on wheat, 400 ppm (+++ at 100 ppm)
[4] = system: Botrytis cinerea (gray mold); test: Test 1 greenhouse foliar spray screen, gray mold on grape berries; conditions: for pest or weed control at 400 ppm: Botrytis cinerea, foliar, Test 1, spray on grape berries, disease control rating at 400 ppm / 100 ppm; for GRAY MOLD: disease control rating, spray on grape berries, 400 ppm (+++ at 100 ppm)
[5] = system: Pseudoperonospora cubensis (downy mildew); test: Test 1 greenhouse foliar spray screen, downy mildew on squash; conditions: for pest or weed control at 400 ppm: Pseudoperonospora cubensis, foliar, Test 1, foliar spray on squash, disease control rating at 400 ppm / 100 ppm, read-out: DOWN MDEW; for DOWN MDEW: disease control rating, foliar spray on squash, 400 ppm (+++ at 100 ppm)
[6] = system: southern armyworm (Spodopetra eridania Cramer); test: Mite/insect screen, SAW; conditions: Spodoptera eridania, percent mortality, read-out: SAW RESULTS %
In short: (§1)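 First, each compound was dissolved in an emulsifier-containing acetone/alcohol mixture and diluted with water. Next, leaves were sprayed until runoff and left to dry for an hour. For southern armyworm, two excised uninfested leaves went into a Petri dish with larvae; percent mortality followed standard exposure periods.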

[7] = system: Twospotted spider mites (Tetranychus urticae Koch); test: Mite/insect screen, SM; conditions: for mortality at 200 ppm / mortality at 400 ppm: Tetranychus urticae, percent mortality, read-out: SM RESULTS %
In short: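 Read-out: percent mortality after standard exposure periods. Test solutions were water dilutions of compound dissolved in acetone/alcohol (50:50) with emulsifier blends; leaves were sprayed to runoff on both surfaces and air-dried for one hour before exposure.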

[8] = system: melon aphids (Aphis gossypii Glover); test: Mite/insect screen, MA; conditions: Aphis gossypii, percent mortality, read-out: MA RESULTS %
In short: as §1

corn rootworm = test: Mite/insect screen, CRW; conditions: percent mortality, read-out: CRW RESULTS %
In short: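 Stock in acetone:alcohol 1:1 + TOXIMUL R 23 g/L + TOXIMUL S 13 g/L; diluted with water to indicated concentrations; mortality (%) after standard exposure.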

[9] = foliar, rate 200 ppm, foliar spray on squash
[10] = foliar, rate 400 ppm, foliar spray on squash

Row | SMILES | pest or weed control at 400 ppm [1] [%] | pest or weed control at 400 ppm [2] [%] | pest or weed control at 400 ppm [3] [%] | pest or weed control at 400 ppm [4] [%] | pest or weed control at 400 ppm [5] [%] | mortality at 200 ppm [6, 9] [%] | mortality at 400 ppm [6, 10] [%] | mortality at 200 ppm [7, 9] [%] | mortality at 400 ppm [7, 10] [%] | mortality at 200 ppm [8, 9] [%] | mortality at 400 ppm [8, 10] [%] | mortality at 12 ppm (corn rootworm; CRW rate 12.00 ppm) [%] | mortality at 24 ppm (corn rootworm; CRW rate 24.00 ppm) [%] | POWD MDEW [1] | RICE BLAST [2] | LEAF RUST [3] | GRAY MOLD [4] | DOWN MDEW [5] | mortality at 400 ppm ([6]; SAW, SM & MA RATE 400 PPM) [%] | mortality at 400 ppm ([7]; SAW, SM & MA RATE 400 PPM) [%] | other results
1 | CC(C)(C)c1ccc(CCOc2ccnc3cc(F)ccc23)cc1 [Example 232, 4-[2-(4-(t-butyl)phenyl)ethoxy]-7-fluoroquinoline] | 0 to 19 | 0 to 19 | 0 to 19 | 0 to 19 | 0 to 19 | 0 | 30 | 100 | 80 | 70 | 40 | 0 | 0 | – | – | – | – | – | – | – | activity as miticides ([7]; summary statement in the description): particularly excellent activity
2 | Fc1ccc2c(OCCOc3ccc(Br)cc3)ccnc2c1 [Example 292, 7-fluoro-4-[2-(4-bromophenoxy)ethoxy]quinoline] | 0 to 19 | 0 to 19 | 0 to 19 | 0 to 19 | 0 to 19 | 0 | 0 | 0 | 0 | 30 | 0 | 0 | 0 | – | – | – | – | – | – | – | –
3 | Cc1cc(C)c2nccc(NCCC3CCCCC3)c2c1 [Example 178, N-(2-cyclohexylethyl)-6,8-dimethyl-4-quinolinamine] | – | – | – | – | – | 0 | 0 | 0 | 0 | 0 | 0 | 0 | 0 | - (0-19% control at 400 ppm) | + (20-89% control at 400 ppm) | ++ (90-100% control at 400 ppm) | - (0-19% control at 400 ppm) | +++ (90-100% control at 100 ppm) | – | – | –
4 | CCC(COc1ccnc2c(F)cccc12)c1ccc(-c2ccccc2)cc1 (stereo not drawn) [Example 270, 4-[2-[1,1'-biphenyl]-4-ylbutoxy]-8-fluoroquinoline] | 0 to 19 | 20 to 89 | 0 to 19 | 0 to 19 | 0 to 19 | 20 | 0 | 0 | 80 | 0 | 0 | 0 | 0 | – | – | – | – | – | – | – | –
5 | CC(=O)N(CCc1ccc(Cl)cc1)c1ccc2c(N(CCc3ccc(Cl)cc3)C(C)=O)ccnc2c1 [Example 191, N,N'-(4,7-quinolinediyl)bis[N-[2-(4-chlorophenyl)ethyl]acetamide]] | 0 to 19 | 20 to 89 | 90 to 100 | 0 to 19 | 0 to 19 | 0 | 0 | 0 | 0 | 0 | 0 | 0 | 0 | – | – | – | – | – | – | – | –
6 | Cc1ccc(C)c2c(NCCc3ccc(Cl)cc3)ccnc12 [Example 109, N-[2-(4-chlorophenyl)ethyl]-5,8-dimethyl-4-quinolinamine] | – | – | – | – | – | – | – | – | – | – | – | – | – | + (20-89% control at 400 ppm) | + (20-89% control at 400 ppm) | ++ (90-100% control at 400 ppm) | - (0-19% control at 400 ppm) | +++ (90-100% control at 100 ppm) | 0 | 0 | mortality at 400 ppm ([8]; SAW, SM & MA RATE 400 PPM): 0%; mortality at 24 ppm (corn rootworm; CRW RATE 24.00 PPM): 0%
7 | CC(=O)N(CCc1ccc(Cl)cc1Cl)c1ccnc2cc(C(F)(F)F)ccc12 [Example 127, N-[2-(2,4-dichlorophenyl)ethyl]-N-[7-(trifluoromethyl)-4-quinolinyl]acetamide] | – | – | – | – | – | – | – | – | – | – | – | – | – | + (20-89% control at 400 ppm) | + (20-89% control at 400 ppm) | + (20-89% control at 400 ppm) | - (0-19% control at 400 ppm) | + (20-89% control at 400 ppm) | 0 | 0 | mortality at 200 ppm ([6]; SAW, SM & MA RATE 200 PPM): 0%; mortality at 200 ppm ([7]; SAW, SM & MA RATE 200 PPM): 0%; mortality at 200 ppm ([8]; SAW, SM & MA RATE 200 PPM): 0%; mortality at 400 ppm ([8]; SAW, SM & MA RATE 400 PPM): 0%; mortality at 12 ppm (corn rootworm; CRW RATE 12.00 PPM): 0%; mortality at 24 ppm (corn rootworm; CRW RATE 24.00 PPM): 0%
8 | FC(F)(F)c1cccc2c(NCCc3ccc(Cl)cc3)ccnc12 [Example 86, N-[2-(4-chlorophenyl)ethyl]-8-(trifluoromethyl)-4-quinolinamine] | – | – | – | – | – | – | – | – | – | – | – | – | – | - (0-19% control at 400 ppm) | - (0-19% control at 400 ppm) | + (20-89% control at 400 ppm) | - (0-19% control at 400 ppm) | + (20-89% control at 400 ppm) | 0 | 0 | mortality at 200 ppm ([6]; SAW, SM & MA RATE 200 PPM): 0%; mortality at 200 ppm ([7]; SAW, SM & MA RATE 200 PPM): 0%; mortality at 200 ppm ([8]; SAW, SM & MA RATE 200 PPM): 0%; mortality at 400 ppm ([8]; SAW, SM & MA RATE 400 PPM): 0%; mortality at 12 ppm (corn rootworm; CRW RATE 12.00 PPM): 0%; mortality at 24 ppm (corn rootworm; CRW RATE 24.00 PPM): 0%
9 | CC(=O)Oc1ccc(CCN(C(C)=O)c2ccnc3c(F)cccc23)cc1 [Example 273, N-[2-(4-acetoxyphenyl)ethyl]-N-(8-fluoro-4-quinolinyl)acetamide] | 20 to 89 | 90 to 100 | 20 to 89 | 0 to 19 | 20 to 89 | – | 0 | – | 0 | – | 0 | – | 0 | – | – | – | – | – | – | – | –
10 | Cc1cc(OCCC2CCCCC2)c2c(Cl)ccc(C)c2n1 [Example 248, 5-chloro-4-(2-cyclohexylethoxy)-2,8-dimethylquinoline] | 20 to 89 | 0 to 19 | 0 to 19 | 0 to 19 | 0 to 19 | – | 0 | – | 0 | – | 0 | – | 0 | – | – | – | – | – | – | – | –
11 | CC(=O)N(CCc1ccc(C(C)(C)C)cc1)c1ccnc2c(F)cccc12 [Example 128, N-[4-(t-butyl)phenyl]ethyl-N-(8-fluoro-4-quinolinyl)acetamide] | – | – | – | – | – | – | – | – | – | – | – | – | – | - (0-19% control at 400 ppm) | + (20-89% control at 400 ppm) | + (20-89% control at 400 ppm) | - (0-19% control at 400 ppm) | - (0-19% control at 400 ppm) | 0 | 0 | mortality at 200 ppm ([6]; SAW, SM & MA RATE 200 PPM): 0%; mortality at 200 ppm ([7]; SAW, SM & MA RATE 200 PPM): 0%; mortality at 200 ppm ([8]; SAW, SM & MA RATE 200 PPM): 0%; mortality at 400 ppm ([8]; SAW, SM & MA RATE 400 PPM): 0%; mortality at 12 ppm (corn rootworm; CRW RATE 12.00 PPM): 0%; mortality at 24 ppm (corn rootworm; CRW RATE 24.00 PPM): 0%
12 | COc1ccc(CCOc2ccnc3c(F)cccc23)cc1OC [Example 199, 4-[2-(3,4-dimethoxyphenyl)ethoxy]-8-fluoroquinoline] | 90 to 100 | 90 to 100 | 90 to 100 | 0 to 19 | 90 to 100 | – | 0 | – | 0 | – | 0 | – | 100 | – | – | – | – | – | – | – | –
